Source: patent US20250338846A1, “COMPOSITIONS HAVING PESTICIDAL UTILITY AND PROCESSES RELATED THERETO” (CORTEVA AGRISCIENCE, LLC, priority 2022, published 2025)

Tested on: Diamondback Moth (Plutella xylostella, PLUTMA)
Experiment: Bioassay 9: Diamondback Moth, leaves of track-sprayed cabbage plants, mortality and feeding damage scored
Assay type: in vivo

For `CCN(C(=O)CCS(C)(=O)=O)c1sc(-c2cccnc2)nc1Cl` [Formula F1, N-(4-chloro-2-(pyridin-3-yl)thiazol-5-yl)-N-ethyl-3-(methylsulfonyl)propanamide], the “Average % Control F1” value (F1 alone 10 (10^-5) Wt %) was 0.00% and the “Average % Control F1” value (Feeding damage control, F1 alone 20 (10^-5) Wt %) was 17.64%.
